Earlier results, collected in patent US11400063B2, “Early administration of low-dose colchicine after myocardial infarction” (INSTITUT DE CARDIOLOGIE DE MONTREAL, priority 2019, dated 2022).

System: patients with stable coronary disease
Conditions: cited from earlier work
[1] = LoDoCo, colchicine vs control (no colchicine)

COc1cc2c(c(OC)c1OC)-c1ccc(OC)c(=O)cc1[C@@H](NC(C)=O)CC2 [Colchicine, colchicine]
Myocardial infarction, Events N (LoDoCo, N = 250, median follow-up 24 months): 4 N
Ischemic stroke, HR (95% CI) [1]: 0.23 (0.03-2.03)
Myocardial infarction, HR (95% CI) [1]: 0.25 (0.08-0.76)
Ischemic stroke, Events % (LoDoCo): 0.4%
Ischemic stroke, Events N (LoDoCo): 1 N
Myocardial infarction, Events % (LoDoCo): 1.6%
cardiovascular events vs those not receiving colchicine (colchicine 0.5 mg once daily, 532 patients, not placebo-controlled): fewer cardiovascular events
